Values of other authors, collected in patent publication US20220016082A1, “COMBINATION THERAPIES FOR HIGH AND VERY HIGH RISK MDS” (MEI Pharma, Inc., priority 2018, published 2022).

Experiments:
[1] = test system: Higher-Risk Myelodysplastic Syndromes and Chronic Myelomonocytic Leukemia; conditions: arms N = 92 / 93 / 92; total N = 277
MDS = conditions: N = 179

Nc1ncn([C@@H]2O[C@H](CO)[C@@H](O)[C@H]2O)c(=O)n1 [AZA Monotherapy, 5-azacytidine]
CR (of CR/PR/HI) [1]: 24%
HI (of CR/PR/HI) [1]: 14%
Marrow CR [1]: 12%
ORR = CR + PR + mCR [1]: 38%
PR (of CR/PR/HI) [1]: 0%
CR (of CR + PR) (MDS): 17%
CR + PR (MDS): 29%
HI (MDS): 49%
PR (of CR + PR) (MDS): 12%
